Reference: article PMC5652740, “Inhibition of HIV-1 infection in humanized mice and metabolic stability of protein phosphatase-1-targeting small molecule 1E7-03” (Oncotarget, 2017)

Assays:
[1] = Pharmacokinetic analysis in mice after i.p. injection; type: in vivo; conditions: male, BALB/cJ, ip, mouse plasma after i.p. 100 mg/kg DP1-07; for AUC(0-t) / MRT last / half-life / Tmax: parent and products DP1-07P1, DP1-07P2; for Cmax: parent and products DP1-07P1, DP1-07P2 (quantified with DP1 and DP3 calibration curves); for Tmax: mouse, plasma, 100 mg/kg
Procedure: The animal facilities and protocols were approved by Howard University Institutional Animal Care and Use Committee (IACUC). All experimental procedures were in accordance with the NIH Guidelines for the Care and Use of Laboratory Animals. BALB/cJ male mice (8 weeks old, 25–30 g) were purchased from Jackson Laboratory (Bar Harbor, ME, USA) and housed under pathogen-free conditions in HEPA-filtered cages and kept on a 12 h light/dark cycle. Compounds were administered to mice via intraperitoneal (i.p.) injection with maximum achievable doses of 30 mg/kg 1E7-03 (100 μl injection of 8 mM 1E7-03 in 80% DMSO/20% saline) and 100 mg/kg DP1-07 (100 μl injection of 100 mM DP1-07 in 40% propylene glycol/10% DMSO/50% saline). Blood samples were collected at different time points (15 min, 30 min, 1 hr, 3 hr, 6 hrs and 24 hrs) for each group (n=3 mice per group). For each sample, 20 μl of plasma was mixed with 80 μl cold acetone, and centrifuged at 13,000 rpm for 5 min. The supernatant was transferred to a clean test tube and dried in a SpeedVac concentrator. The residue was re-constituted in 50 μl of acetonitrile for LC-MS analysis. Calibration curves were prepared by spiking 1E7-03, DP1, DP3 and DP1-07 into the drug-free mouse plasma and subjected to similar sample extraction procedures. The plasma concentration–time profile of each analyte was constructed and pharmacokinetic parameters were determined by non-compartmental method using Phoenix WinNonlin Version 5.3 (Pharsight Corporation, Mountain View, CA).
A 10 μl aliquots from each sample were loaded to a LC-20AD nano HPLC system (Shimadzu Corporation, Columbia, MD, USA) coupled to LTQ XL Orbitrap mass spectrometer (Thermo Fisher Scientific) with the installed Xcalibur software (version 2.0.7, Thermo Fisher Scientific). Liquid chromatography was carried out on an in-house made nano-HPLC column (Polymicro Technologies Inc., Phoenix, AZ, USA) packed with reverse phase PolySulfoethyl A, 5μM, 200 Å (PolyLC Inc., Columbia, MD, USA). Mobile phase A was 0.1% formic acid in water and mobile phase B - 0.1% formic acid in acetonitrile. The elution was performed at a flow rate of 600 nl/min over 40 min using a multisegment linear gradient of mobile phase B as follows: 0–6.02 min, 1% B; 6.02–6.11 min, 1–2% B; 6.11–20 min, 2−80% B; 20–25 min, 80% B; 25–30 min, 80–85% B; 30–31 min, […]; 31–40 min, 2% B (v/v). The Orbitrap was operated under data-dependent acquisition mode. The spray voltage, capillary temperature and capillary voltage were set to 2.0 kV, 200 °C, and 39.5 V, respectively. Full-scan mass spectra were acquired in Orbitrap over 150−1500 m/z with a resolution of 30 000, followed by MS^n scans by CID activation mode. The precursor ions were fragmented with collision energy of 18 with activation Q of 0.25 and an activation time of 30 ms. Dynamic exclusion was enabled with a repeat count of 2, a repeat duration of 15 s, exclusion duration of 20 s, an exclusion list size of 50. The mass spectrometer was also operated in NL scan of m/z 18.01, 45.05, 71.03 and 72.02 and MRM mode. The MRM transitions were controlled by a segmented program in order to short the scan cycle and increase sensitivity.

[2] = tested on: HIV-1 env and gag mRNA; experiment: HIV-1 env and gag mRNA expression by real-time RT-PCR in infected CEM T cells; type: cell-based; conditions: 10 μM 1E7-03, DP1, DP3; 5 μM AZT, 3TC; in words
Procedure: For quantitative analysis of HIV-1 RNA, CEM T cells were infected with HIV-1-LUC-G virus. Cells were treated with 10 μM 1E7-03, 10 μM DP1, 10 μM DP3, 5 μM AZT or 5 μM 3TC and control cells were untreated or treated with DMSO. Total RNA was isolated using Trizol Reagent (Invitrogen, Carlsbad, CA) according to the manufacturer's protocol. Total RNA (100 ng) was reverse transcribed to cDNA using Superscript™ RT-PCR kit (Invitrogen, Carlsbad, CA). Hexamers and oligo-dT were used as primers. For real-time PCR analysis, cDNA was amplified using Roche LightCycler 480 (Roche Diagnostics) and SYBR Green1 Master mix (Roche Diagnostics). PCR was run for 45 cycles and each cycle included denaturation at 95°C for 10 seconds, annealing at 60°C for 10 seconds, and extension at 72°C for 10 seconds. Quantification of env and gag was carried using 18S RNA as a normalization standard. Quantification of housekeeping genes, β-actin and RSP13 was carried relative to 18S RNA. Mean Cp values were determined and ΔΔCt method was used to calculate relative expression levels. Unpaired t-test was used to test statistical significance.
The following primer sequences were used: env, forward - […], reverse-[…]; gag, forward- […], reverse- […]; β-actin, forward- […], reverse-[…]; RSP13, forward- […], reverse- […]; and 18SrRNA, forward- […], reverse- […].

[3] = molecular target: T1, Recombinant PP1 (human PP1α residues 7–300) (Homo sapiens, UniProt P62136); experiment: Surface plasmon resonance direct binding to immobilized PP1; conditions: SPR; for PP1 WT KD (M): 1:1 binding model, 25°C
T1 construct: human PP1α (residues 7–300); His; made in house; host or cells: BL21 (DE3) Escherichia coli, co-expressed with GroEL/GroES chaperones
Procedure: PP1 was purified as previously described. BL21 (DE3) Escherichia coli cells (Invitrogen, Carlsbad, CA, USA) were -transformed with a vector expressing human PP1α (residues 7–300) and pGR07, which expresses GroEL/[…] chaperones (both gifts from Dr Mathieu Bollen and Monique Beullens, KU Leuven, Belgium). The cells were grown in media supplemented with 1 mM MnCl2 at 30°C to an A600 =0.5. Arabinose (2 g per L) was added to induce expression of the GroEL/GroES chaperones. When A600 =1 was reached, the cells were transferred to 10°C and PP1 expression was induced with 0.1 mM Isopropyl β-D-1-thiogalactopyranoside for 20 hrs. Harvested cells were lysed using sonication in a solution containing in 50 mM Tris-HCl (pH 8.0), 5 mM imidazole, 700 mM NaCl, 1 mM MnCl2, 0.1% Triton X-100 (v/v) and protease inhibitors. His-tagged PP1 was purified using a Ni-NTA IMAC column (Qiagen, Valencia, CA, USA). Purified PP1 was dialyzed and stored at −70°C in 50 mM Tris-HCl (pH 8.0), 5 mM imidazole, 700 mM NaCl and 1 mM MnCl2. PP1 activity was then assayed as previously described.
The SPR measurements were conducted on Biacore T200 instrument (GE Healthcare, Piscataway, NJ) at 25°C. Recombinant PP1 was immobilized on a CM5 chip by amine coupling (GE Healthcare). PP1 (200 nM) was captured on flow cell 2 in 10 mM acetate buffer, pH 5.0, supplemented with 2 mM MnCl2. […] Flow cell 1 was used as a reference surface to subtract background signal. Also injections of the buffer alone were used to provide double reference subtraction. […] For binding and kinetics experiments, all compounds were diluted in the running buffer, at 40 μM, 20 μM, 10 μM, 5 μM, 2.5 μM, 1.25 μM and 0 μM and then passed over the two flow cells at a flow rate of 100 μl/min for 60 sec. The number of response units was recorded after the subtraction of the reference flow cell's value (Fc2-1). Two repetitions were performed for each injection. Data were analyzed using the BiaEvaluation software of Biacore with a 1:1 binding model. […] All the small molecular weight compounds were used at 1 μM.

T1 sequence (P62136 7-300): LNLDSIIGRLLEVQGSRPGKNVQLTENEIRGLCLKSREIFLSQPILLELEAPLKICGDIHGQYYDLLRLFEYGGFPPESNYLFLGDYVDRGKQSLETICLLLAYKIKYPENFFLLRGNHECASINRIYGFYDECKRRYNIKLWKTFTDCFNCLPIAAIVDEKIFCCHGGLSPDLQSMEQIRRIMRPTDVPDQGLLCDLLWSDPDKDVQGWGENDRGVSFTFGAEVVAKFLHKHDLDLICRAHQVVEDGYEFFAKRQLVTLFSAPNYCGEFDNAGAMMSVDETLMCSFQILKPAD

Row | Compound | AUC(0-t) [1] | MRT last [1] | half-life [1] | Cmax [1] | Tmax [1] | HIV-1 env mRNA expression [2] | HIV-1 gag mRNA expression [2] | also measured
1 | COc1ccc(/C=C2\CCCc3c2nc2ccccc2c3C(=O)OC(C)C(=O)O)cc1OC (centres unmarked) [DP1-07P1] | 124 µM·h | 10.5 h | 13.4 h | 7.54 µM | 6 h |  |  | 
2 | Cc1cn([C@H]2C[C@H](N=[N+]=[N-])[C@@H](CO)O2)c(=O)[nH]c1=O [AZT, azidothymidine, reference compound] |  |  |  |  |  | strong inhibition | strong inhibition | 
3 | COc1ccc(/C=C2\CCCc3c2nc2ccccc2c3C(=O)O)cc1OC [DP1-07P2] | 288 µM·h | 8.86 h | 4.66 h | 23.7 µM | 6 h |  |  | 
4 | CC[C@H](C)[C@H](NC(=O)[C@H](Cc1ccccc1)NC(=O)[C@H](CS)NC(=O)[C@@H](NC(=O)[C@H](CCC(N)=O)NC(=O)[C@H](CS)NC(=O)[C@H](Cc1c[nH]cn1)NC(=O)[C@H](Cc1ccccc1)NC(=O)[C@H](CS)NC(=O)[C@H](CS)NC(=O)[C@H](CCCCN)NC(=O)[C@H](CCCCN)NC(=O)[C@H](CCCNC(=N)N)NC(=O)[C@H](CC(C)C)NC(=O)[C@@H]1CCCN1C(=O)[C@H](CO)NC(=O)[C@H](CO)NC(=O)[C@@H]1CCCN1C(=O)[C@H](Cc1ccccc1)NC(=O)[C@H](CCCCN)NC(=O)[C@H](Cc1ccc(O)cc1)NC(=O)[C@@H]1CCCN1C(=O)[C@H](COP(=O)(O)O)NC(=O)[C@H](CCCNC(=N)N)NC(=O)[C@@H]1CCCN1C(=O)[C@@H](NC(=O)[C@@H](N)Cc1c[nH]cn1)[C@@H](C)CC)C(C)C)C(=O)N[C@H](C(=O)N[C@@H](CCCCN)C(=O)O)[C@@H](C)O [pRb-Tat, reference compound] |  |  |  |  |  |  |  | times higher binding ability than 1E7-03, DP1 and DP3 [3]: 20-40 times
5 | pRb-Tat mutant: mutant pRb-Tat peptide with QACA mutation in the RVxF motif (HIPRSPYKFPSSPLRKKCCFHCQACAITK) [reference compound] |  |  |  |  |  |  |  | PP1 WT KD (M) [3]: No binding; PP1 WT KD (M) ([3]; listed as mutant pRb-Tat): did not bind
6 | Nc1ccn([C@@H]2CS[C@H](CO)O2)c(=O)n1 [3TC, lamivudine, reference compound] |  |  |  |  |  | strong inhibition | strong inhibition | 
